Values quoted from earlier work in PMC4357254, “Molecular cloning and characterization of the allatotropin precursor and receptor in the desert locust, Schistocerca gregaria” (Frontiers in Neuroscience, 2015).
Where no end group is shown, it is not given here.

What was measured:
corpora allata (CA) = conditions: in vitro; ref Kataoka et al., [1989]
Description: Allatotropin (AT) was originally identified as an amidated tridecapeptide isolated from the nervous system of the lepidopteran Manduca sexta. […] Most ATs have a conserved C-terminal pentapeptide that consists of a TARGFa motif although the hymenopteran AT has an exceptional TAYGFa C-terminal (Veenstra et al., [2012]). There are also AT-like peptides (ATLs) that contain more variation in their C-terminal motif but t ...

[1] = system: ATR receptor of B. terrestris; conditions: ref Verlinden et al., [2013]
Description: (§1) ATs exert effects on their cellular targets by binding to receptors with high affinity binding sites that are members of the family of rhodopsin-like G protein-coupled receptors (GPCRs). The AT receptors (ATRs) are orthologous to vertebrate orexin/hypocretin receptors. To date, five ATRs have been characterized; namely the neuropeptide 16 receptor in Bombyx mori (Yamanaka et al., [2008]), the receptors of M. sexta (Horodyski et al., [2011]), Tribolium castaneum (Vuerinckx et al., [2011]), Aedes aegypti (Nouzova et al., [2012]) and Bombus terrestris (Verlinden et al., [2013]). The first three w ...

[2] = system: neuropeptide 16 receptor in Bombyx mori; conditions: ref Yamanaka et al., [2008]
Description: as §1

T. castaneum receptor = conditions: ref Vuerinckx et al., [2011]
Description: as §1

ATR of M. sexta = conditions: ref Horodyski et al., [2011]
Description: as §1

activation of B. terrestris ATR [1]: responded
concentrations needed for activation of B. terrestris ATR ([1]; relative to other ATRs): much higher concentrations were needed
activation of B. mori neuropeptide 16 receptor [2]: dose-dependently activated
activation of T. castaneum ATR (T. castaneum receptor): dose-dependently activated
Substance: Manse-AT: amidated tridecapeptide isolated from the nervous system of the lepidopteran Manduca sexta (GFKNVEMMTARGF-NH2; UniProt P21786 37-49, looked up)
JH biosynthesis in the corpora allata (corpora allata (CA)): stimulate juvenile hormone (JH) biosynthesis
activation of M. sexta ATR (ATR of M. sexta): dose-dependently activated
